Consider one compound from patent US20240268372A1, “Methods and Compositions for Extending Organ and Tissue Preservation” (The General Hospital Corporation, priority 2021, published 2024).

SMILES strings stand for the structures.

For series [1], the system named is discarded DCD human livers. Kind of series: RNA sequencing of liver biopsies during NMP (differential expression, IPA, GO).
Method: RNA purification and sequencing: Core needle biopsies taken immediately prior to perfusion and after 3 and 6 hours of perfusion were used for transcriptome sequencing. […] The differential gene expression threshold for significance was set to a Benjamini-Hochberg false discovery rate (FDR)<0.05.
In brief, tissues samples from livers taken immediately prior to perfusion and after 3 and 6 hours of perfusion were used for transcriptome sequencing. Core needle biopsies from the right liver lobe were collected in RNAlater solution (Sigma-Millipore, Waltham, MA, USA) and stored overnight at 4° C. Tissue samples were then removed from solution and stored at −80° C. Total RNA was isolated using the RNeasy Mini Kit (Qiagen, Germantown, MD, USA) according to manufacturer guidelines. 500 ng of each sample was sequenced on an Illumina HiSeq 4000 using 9 PCR cycles by GENEWIZ (South Plainfield, NJ, USA). Raw RNA-Seq data files were transferred to the Brown University computing cluster via sFTP and aligned to the human genome build 38 using STAR 2.7.3a (see, e.g., ref. 25). While sequencing was performed in two batches, the alignment was performed on all samples simultaneously using the same settings.
In brief, raw read counts were normalized using the Trimmed Mean of M method following removal of low-count genes (fewer than 10 reads in the smallest library). Differential gene expression analysis was conducted in R (see, e.g., ref. 27) using edgeR (see, e.g., ref. 28). The significance cutoff for differential gene expression was set to a Benjamini-Hochberg false-discovery rate (FDR or q-value)<0.05. Canonical pathway and upstream regulator enrichment analysis was generated through Ingenuity Pathway Analysis (IPA, Qiagen) (see, e.g., ref. 29). […]
Gene ontology (GO) enrichment analysis was performed using the R package GOseq (see, e.g., ref. 31). […] The genes with the highest amount of variance explained by principal component 1, 2, or 3 cumulatively totaling to 10% of the total variance explained by the specified PC were further analyzed.
For series [2], the system named is discarded DCD human livers. In words: Perfusate plasma apoptosis biomarkers, cell-free DNA and cytokines during liver NMP (ELISA kits). How it is done:
With respect to the experimental group (emricasan, EM), 5 consecutive human livers turned down for transplant were enrolled. Emricasan, also known as IDN-6556 (MedChemExpress, Monmouth Junction, NJ), dissolved in DMSO was added to the circulating perfusate prior to initiation of liver perfusion at a dose of 5 mg/kg liver weight (1 mL total volume, 0.05% v/v total perfusate). Vehicle control (1 mL DMSO) was previously incorporated in the control liver perfusions (FIG. 6).
Protein Analysis: Perfusate collected at the indicated time points was centrifuged at 5000 g and the plasma collected and stored at −80° C. for later analysis. Enzyme-linked immunosorbent assays (ELISA) were performed for various proteins according to manufacturers' guidelines.
A general note: ELISA stands for enzyme-linked immunosorbent assay.

The test system of another series is rodent LT models. As to conditions: drug given at the time of liver procurement; cited from earlier work.
The test system of series [3] is discarded DCD human livers. In words: Western immunoblot and LC3B immunohistochemistry of liver biopsies during NMP (UPR, autophagy, necroptosis). How it is done:
Sequential wedge biopsies from the right lobe of each liver were performed at indicated intervals, flash frozen in liquid nitrogen, and stored at −80° C. Tissue samples (20 mg) were homogenized and Western immunoblots performed as previously described (see, e.g., ref. 16). A full list of antibodies used is provided below in Table 3.
To compare target protein expression, densitometry quantification was conducted. Both proteins varied across samples and the changes were not consistent between the 2 proteins, with the variation representing the biologic variability in the human liver.
In brief, immunohistochemistry was performed using antibodies directed toward LC3B (Product No. NB100-2220, Novus Biologicals, Littleton, CO, USA). Paraffin sections (6 μm) were deparaffinized with xylene and rehydrated with graded ethanol. Antigen retrieval was performed by sub-boiling in 1×-diluted Dako Target Retrieval Solution for 10 min (DakoCytomation, Inc., Carpinteria, CA). Slides were then quenched in 3% H2O2 and blocked in 2.5% Normal Horse Serum (Vector Labs, Burlingame, CA) before overnight incubation in primary antibody (1:200 dilution) at 4° C. Slides were incubated with a horseradish-peroxidase conjugated secondary rabbit antibody (Vector Laboratories) for 1 hr prior to staining with DAB (Vector Laboratories). Slides were counterstained with hematoxylin. Omission of the primary antibody served as a negative control.
For orientation: Immunoblotting shows a protein as a band on a membrane.

In a further series the test system is LT recipients. As to conditions: emricasan in preservation flush solution vs placebo group; cited from earlier work.
The conditions of series [4]: clinical trials for liver transplant and NASH; cited from earlier work.
Series [5] relates to discarded DCD human livers. In words: H&E histology of liver biopsies during NMP. As to conditions: EM, IHF and AHF livers. How it is done: Histology and immunohistochemistry: Core needle biopsies taken from the right liver lobe at indicated intervals were fixed in formalin and embedded in paraffin. Hematoxylin and eosin (H&E) stains were performed on all biopsies to assess the degree of necrosis, inflammatory cell infiltrate, and reperfusion injury using a validated scoring system (see, e.g., ref. 17). Immunohistochemistry for LC3 was performed as previously described (see, e.g., ref. 3).

Series [6] deals with discarded DCD human livers. In words: Normothermic machine perfusion (NMP) of discarded human livers with emricasan in the perfusate: hepatocellular and cholangiocellular function. The source says:
Human liver perfusions: Sixteen human livers from donation after circulatory death, with consent for research, were included in this study after being turned down by all transplant centers in the respective region of procurement. Human livers were procured in standard fashion through two Organ Procurement Organizations (OPO): New England Donor Services (Waltham, MA, USA) and LiveOnNewYork (New York, NY). In addition, one liver was obtained through the International Institute for the Advancement of Medicine (IIAM, Edison, NJ), which originated from the Gift of Life Donor Program (Philadelphia, PA). Informed consent was obtained from donors by the OPO. The Massachusetts General Hospital and Lifespan Institutional Review Boards, as well as the two OPOs and IIAM, approved this study (No. 2011P001496). No organs were procured from prisoners and no vulnerable populations were included in this study.
Procurement techniques based on donation after circulatory death followed standard methods. Donor livers were flushed in situ with University of Wisconsin solution. Total warm ischemic time was defined as the period from extubation to cold flush. Functional WIT was defined as the period from asystole to cold flush. Cold ischemic time was defined from cold flush to initiation of machine perfusion. All livers were transported via ground courier. After arrival to the laboratory under static cold storage, livers underwent standard back bench preparation for machine perfusion.
Grafts were perfused on the Liver Assist device (Organ Assist, Groningen, Netherlands) using a previously described protocol (see, e.g., ref. 14). Briefly, perfusate composition consisted of O+ packed red blood cells, human albumin, Lactated Ringer's solution, and heparin. […] Perfusate, bile, and tissue biopsies were collected and analyzed at multiple time points. Grafts were assessed for adequate hepatocellular and cholangiocellular function. […] Cholangiocellular (biliary) viability metrics were measured according to van Leeuwen (see, e.g., ref. 15). […]

As to `C[C@H](NC(=O)C(=O)Nc1ccccc1C(C)(C)C)C(=O)N[C@@H](CC(=O)O)C(=O)COc1c(F)c(F)cc(F)c1F` [emricasan], in series [1] (3 and 6 h vs pre-perfusion), the “enrichment of IRI canonical pathways (innate immunity, sinusoidal endothelial cell activation), IPA” value is “minimal enrichment”. Besides, in series [1] (compared to both control groups), the “differentially expressed genes after 3 and 6 hours of NMP vs pre-perfusion” value is given as “markedly smaller set of DEGs”. Further, in series [1] (compared to controls (viable and nonviable livers)), the “upregulation of pro-inflammatory and pro-death genes” value is given as “decreased upregulation”. The “circulating cell-free DNA (DAMP)” value in series [2] (NMP, compared to control groups) is recorded as “significantly reduced”. Further, in series [2] (NMP, vs control groups), the “perfusate caspase-3/7 enzyme activity” value is given as “significantly lower” and the “perfusate level of cleaved cytokeratin 18” value is “significantly lower”. Besides, the “evidence of apoptosis (circulating cleaved cytokeratin 18 and caspase-3/7 activity)” value in series [2] (after both 3 and 6 hours of NMP) was “significantly decreased”. In addition, the “cell-free DNA in perfusate” value in series [2] (at 1 and 6 hours of NMP) is “significantly lower”. In addition, in series [2] (compared only to IHF livers), the “circulating interleukin-1β (IL-1β)” value is given as “lower” and the “circulating tumor necrosis factor-α (TNFα)” value is reported as “lower”. In series [2] (compared to AHF and IHF groups), the “perfusate interferon-γ (IFNG)” value was “significantly lower”, the “perfusate interleukin-6 (IL-6)” value is recorded as “significantly lower” and the “perfusate interleukin-8 (IL-8)” value is recorded as “significantly lower”. For the same compound, the “survival in rodent LT models” value in the series with rodent LT models is “improved”. In series [3] (3 and 6 hr of NMP), the “shift of LC3B to granule staining pattern (immunohistochemistry)” value was “not observed”. In addition, the induction of necroptosis entry in series [3] (NMP with emricasan) is given as “did not lead to induction of necroptosis”. Besides, in series [3] (before and during perfusion), the Phospho-MLKL result is given as “below the limit of detection”. In the series on LT recipients, the “AST and ALT levels in LT recipients” value was “significantly lower”. The “safety and tolerance profile” value in series [4] is on record as “excellent”. In addition, the “inflammatory infiltrate or necrosis (H&E histology)” value in series [5] is given as “no significant differences”. Also, the “number of emricasan-treated livers demonstrating adequate hepatocellular function” value in series [6] (5 livers treated, 5 mg/kg liver weight in perfusate, NMP) turned out to be 4. In series [6] (end-ischemic NMP of DCD livers), the “IRI in cholangiocytes / cholangiocellular function” value was “did not appear to improve IRI in cholangiocytes”. Also, the “ischemia-reperfusion injury in hepatocytes” value in series [6] (treatment during NMP after cold and warm ischemia) is recorded as “mitigated”.
